The test relates to organotypic cortical co-cultures. Description: Correlated activity (regeneration of functional connections) in organotypic cortical co-cultures on micro-electrode arrays. The format is cell-based, Wistar rats. The conditions noted are these: 50 nM in culture medium from 0 DIV, re-administered with each medium change up to 14 DIV; after 14 days in vitro; n=18; untreated control ca. 60% (n=28). As for the experimental part:
Organotypic cortical co-cultures (350-425 μm thick from the neocortex) were prepared from three-day-old to seven-day-old Wistar rats of both sexes and were maintained in vitro using the roller tube technique; on this point see Gähwiler, Organotypic Monolayer Cultures of Nervous Tissue, J. NEUROSCIENCE METHODS, 1981, volume 4, pages 329-342. The co-cultures were allowed to grow for up to 35 days either on glass cover plates or on micro-electrode arrays in medium which contained 50% Eagle's basic medium, 25% Hanks-buffered saline solution, 25% horse serum, 33 mM D-glucose and 1 mM L-glutamine. The medium was replaced twice a week, and the co-culture explants were positioned relative to one another with varied orientations and varied distances (0 to 500 μm).
The explants cultured on micro-electrode arrays were recorded at different times for spontaneous electrical activity, at the earliest after 4 DIV (days in vitro) and at the latest 35 DIV in normal culture medium at a temperature of 35° C. Using a multi-channel recording system, the 60 micro-electrodes could be recorded simultaneously, as a result of which it was possible to test correlated activity in the co-cultures. […] The electrodes had impedances of 100 to 300 kΩ (at 1 kHz), a spacing of 500 μm and a diameter of 10 μ. The activity was recorded at 10 to 25 kHz per channel, stored, and analyzed offline in respect of latency. […]

The structures appear in SMILES notation.

In the case of `C=CC[C@@H]1/C=C(\C)C[C@H](C)C[C@H](OC)[C@H]2O[C@@](O)(C(=O)C(=O)N3CCCC[C@H]3C(=O)O[C@H](/C(C)=C/[C@@H]3CC[C@@H](O)[C@H](OC)C3)[C@H](C)[C@@H](O)CC1=O)[C@H](C)C[C@@H]2OC` [FK506], the “correlated activity (share of explants showing correlation)” value is roughly 90%.

(Values after patent US20030068613A1, “Method for studying regeneration in biological material” (priority 2000, published 2003).)
